Experimental data taken from patent publication USRE39198E1, “Heteroarylpiperidines, pyrrolidines and piperazines and their use as antipsychotics and analgesics” (Aventis Pharmaceuticals Inc., priority 1989, dated 2006).

| SMILES | melting point [°C] |
| --- | --- |
| Cl.O=C1[C@H]2CCCC[C@H]2C(=O)N1CCCCN1CCC(c2noc3cc(F)ccc23)CC1 | 229 to 231 |
| CC(=O)OCCN1CCC(c2noc3cc(F)ccc23)CC1.O=C(O)/C=C/C(=O)O | 154 to 155 |
| COCCN1CCC(c2noc3cc(F)ccc23)CC1.O=C(O)/C=C/C(=O)O | 157 to 158 |
| CC(=O)OCCCCN1CCC(c2noc3cc(F)ccc23)CC1.O=C(O)/C=C/C(=O)O | 142 to 143 |
| O=C(O)/C=C/C(=O)O.OCCCCN1CCC(c2noc3cc(F)ccc23)CC1 | 131 to 132 |
| Fc1ccc2c(C3CCN(CCC4OCCCO4)CC3)noc2c1.O=C(O)/C=C/C(=O)O | 161 to 162 |
| CCCCCCCCCC(=O)NCCN1CCC(c2noc3cc(F)ccc23)CC1.O=C(O)/C=C/C(=O)O | 108 to 110 |
| CC(=O)NCCN1CCC(c2noc3cc(F)ccc23)CC1.O=C(O)/C=C/C(=O)O | 132 to 133 |
| CC(=O)OCCNCCN1CCC(c2noc3cc(F)ccc23)CC1.O=C(O)/C=C/C(=O)O | 116 to 118 |
| C[C@@H](CO)CN1CCC(c2noc3cc(F)ccc23)CC1.O=C(O)/C=C/C(=O)O | 114 to 115 |
| CC(=O)OC[C@H](C)CN1CCC(c2noc3cc(F)ccc23)CC1.O=C(O)/C=C/C(=O)O | 118 to 120 |
| CC(C)(CO)CN1CCC(c2noc3cc(F)ccc23)CC1.O=C(O)/C=C/C(=O)O | 144 to 145 |
| CC(C)(O)CCN1CCC(c2noc3cc(F)ccc23)CC1.O=C(O)/C=C/C(=O)O | 156 to 158 |
| CCOC(=O)CCN1CCC(c2noc3cc(F)ccc23)CC1.O=C(O)/C=C/C(=O)O | 135 to 136 |
| CCOC(C)c1ccc(OCCCN2CCC(c3noc4cc(F)ccc34)CC2)c(OC)c1.Cl (centres unmarked) | 139 to 141 |
| CCc1ccc(OCCCN2CCC(c3noc4cc(F)ccc34)CC2)cc1OC.Cl | 150 to 152 |
| CC(=O)c1ccc(O)c(OC/C=C/CN2CCC(c3noc4cc(F)ccc34)CC2)c1.Cl | 208 to 210 |
| Cl.O=C1[C@H]2CCCC[C@H]2C(=O)N1CCCN1CCC(c2noc3cc(F)ccc23)CC1 | 242 to 245 |
| Cl.Cl.NCCCCN1CCC(c2noc3cc(F)ccc23)CC1 | 234 to 237 |
| Cl.Cl.NCCCN1CCC(c2noc3cc(F)ccc23)CC1 [1-(3-Aminopropyl)-4-(6-fluoro-1,2-benzisoxazol-3-yl)-piperidine dihydrochloride] | 231 to 234 |
| COc1cc(C(C)=O)ccc1OCCCN1CCC(c2nsc3cc(F)ccc23)CC1.Cl [1-[4-[3-[4-(6-Fluoro-1,2-benzisothiazol-3-yl)-1-piperidinyl]propoxy]-3-methoxyphenyl]ethanone hydrochloride] | 221 to 223 |
| CCCCCCCCCC(=O)OCCCCN1CCC(c2noc3cc(F)ccc23)CC1.O=C(O)/C=C/C(=O)O [4-[4-(6-Fluoro-1,2-benzisoxazol-3-yl)-1-piperidinyl]butyl decanoate fumarate] | 109 to 110 |
| OCCCN1CCC(c2noc3cc(F)ccc23)CC1 [6-Fluoro-3-[1-(3-hydroxypropyl)-4-piperidinyl]-1,2-benzisoxazole] | 140 to 142 |
| COc1cc(C(C)=O)ccc1OC/C=C\CN1CCC(c2noc3cc(F)ccc23)CC1 [(Z)-1-[4-[[4-[4-(6-Fluoro-1,2-benzisoxazol-3-yl)-1-piperidinyl]-2-butenyl]oxy]-3-methoxyphenyl]ethanone] | 57 to 59 |
| COc1cc(C(C)=O)ccc1OCCCN1CCC(c2nsc3ccccc23)CC1 [Example 10, 1-[4-[3-[4-(1,2-Benzisothiazol-3-yl)-1-piperidinyl]-propoxy]-3-methoxyphenyl]ethanone] | 93 to 96 |

| SMILES | melting point [°C] |
| --- | --- |
| COc1cc(C(C)=O)ccc1OCCCN1CCN(c2n[nH]c3cc(F)ccc23)CC1 [Example 12, 1-[4-[3-[4-(6-Fluoro-1H-indazol-3-yl)-1-piperazinyl]-propoxy]-3-methoxyphenyl]ethanone] | 135 to 137 |
| COc1cc(C(C)=O)ccc1OCCCN1CCC(c2n[nH]c3ccccc23)CC1 [Example 14, 1-[4-[3-[4-(1H-Indazol-3-yl)-1-piperidinyl]propoxy]-3-methoxyphenyl]ethanone] | 171 to 173 |
| COc1cc(C(C)=O)ccc1OCCCCN1CCC(c2n[nH]c3ccccc23)CC1 [Example 20, 1-[4-[4-[4(1H-indazol-3-yl)-1-piperidinyl]butoxy]-3-methoxyphenyl]ethanone] | 133 to 135 |
| COc1cc(C(C)=O)ccc1OCCCN1CCC(c2n[nH]c3cc(F)ccc23)CC1 [Example 28, 1-[4-[3-[4-(6-Fluoro-1H-indazol-3-yl)-1-piperidinyl]-propoxy]-3-methoxyphenyl]ethanone] | 202 to 204 |
| COc1cc(C(C)=O)ccc1OCCCCN1CCN(c2n[nH]c3cc(Cl)ccc23)CC1 [Example 36, 1-[4-[4-[4-(6-Chloro-1H-indazol-3-yl)-1-piperazinyl]butoxy]-3-methoxyphenyl]ethanone] | 189 to 191 |
| COc1cc(C(C)=O)ccc1OCCN1CCN(c2nsc3ccccc23)CC1 [Example 39, 1-[4-[2-[4-(1,2-Benzisothiazol-3-yl)-1-piperazinyl]ethoxy]-3-methoxyphenyl]ethanone] | 98 to 100 |
| COc1cc(C(C)=O)ccc1OCCN1CCN(c2n[nH]c3cc(Cl)ccc23)CC1 [Example 41, 1-[4-[2-[4-(6-Chloro-1H-indazol-3-yl)-1-piperazinyl]ethoxy]-3-methoxyphenyl]ethanone] | 154 to 156 |
| COc1cc(C(C)=O)ccc1OCCCCN1CCC(c2nsc3ccccc23)CC1 [Example 46, 1-[4-[4-[4-(1,2-Benzisothiazol-3-yl)-1-piperidinyl]butoxy]-3-methoxyphenyl]ethanone] | 78 to 80 |
| CC(=O)Nc1ccccc1OCCCN1CCC(c2noc3cc(F)ccc23)CC1 [Example 61, N-[2-[3-[4-(6-fluoro-1,2-benzoisoxazol-3-yl)-1-piperidinyl]propoxy]phenyl]acetamide] | 118 to 120 |
| Nc1cccc(OCCCN2CCC(c3noc4cc(F)ccc34)CC2)c1 [Example 71, 3-[3-[4-(6-Fluoro-1,2-benzisoxazol-3-yl)-1-piperidinyl]propoxy]aniline] | 115 to 117 |
| COc1ccc(NC(C)=O)cc1OCCCN1CCC(c2nsc3cc(F)ccc23)CC1 [Example 74, N-[3-[3-[4-(6-Fluoro-1,2-benzisothiazol-3-yl)-1-piperidinyl]propoxy]-4-methoxyphenyl]acetamide] | 109 to 111 |
| COc1cc(C(C)=O)ccc1OC/C=C/CN1CCC(c2noc3cc(F)ccc23)CC1 [Example 81, (E)-1-[4-[[4-[4-(6-Fluoro-1,2-benzisoxazol-3-yl)-1-piperidinyl]-2-butenyl]oxy]-3-methoxyphenyl]ethanone] | 91 to 93 |
| CC(=O)c1ccc(OCc2ccccc2)c(OC/C=C/CN2CCC(c3noc4cc(F)ccc34)CC2)c1 [Example 85, (E)-1-[3-[[4-[4-(6-Fluoro-1,2-benzisoxazol-3-yl)-1-piperidinyl]-2-butenyl]oxy]-4-benzyloxyphenyl]ethanone] | 124 to 125 |
| Fc1ccc2c(C3CCN(CC4COc5ccccc5O4)CC3)noc2c1 (centres unmarked) [Example 91, 2-[4-(6-Fluoro-1,2-benzisoxazol-3-yl)-1-piperidinyl]methyl-1,4-benzodioxan] | 86 to 87 |
| CC(=O)c1ccc2c(c1)oc(=O)n2CCCN1CCC(c2noc3cc(F)ccc23)CC1 [Example 94, N-[3-[4-(6-Fluoro-1,2-benzisoxazol-3-yl)-1-piperidinyl]propyl]-6-acetyl-2-benzoxazolinone] | 152 to 154 |
| O=C1c2ccccc2C(=O)N1CCCCN1CCC(c2noc3cc(F)ccc23)CC1 [Example 98, N-[4-[4-(6-Fluoro-1,2-benzisoxazol-3-yl)-1-piperidinyl]butyl]phthalimide] | 144 to 146 |
| CC(=O)c1ccc(NCCCN2CCC(c3noc4cc(F)ccc34)CC2)c(O)c1 [Example 111, 1-[4-[3-[4-(6-Fluoro-1,2-benzisoxazol-3-yl)-1-piperidinyl]propylamino]-3-hydroxyphenyl]ethanone] | 150 to 152 |
| Fc1ccc2c(C3CCN(CCCCBr)CC3)noc2c1 [Example 114, 4-[4-(6-Fluoro-1,2-benzisoxazol-3-yl)-1-piperidinyl]butyl bromide] | 243 to 245 |
| Fc1ccc2c(C3CCN(CCN4CCOCC4)CC3)noc2c1 [Example 116, N-[2-[4-(6-Fluoro-1,2-benzisoxazol-3-yl)-1-piperidinyl]ethyl]morpholine] | 131 to 132 |
| COC(C)c1ccc(OCCCN2CCC(c3noc4cc(F)ccc34)CC2)c(O)c1 (centres unmarked) [Example 139, 3-[1-[3-[4-(1-Methoxyethyl)-2-hydroxyphenoxyl]propyl]-4-piperidinyl]-6-fluoro-1,2-benzisoxazole] | 98 to 100 |
| Fc1ccc2c(C3CCN(CCCOc4ccc5[nH]ccc5c4)CC3)noc2c1 [Example 140, 6-Fluoro-3-[1-[3-[(1H-indol-5-yl)oxy]propyl]-4-piperidinyl]-1,2-benzisoxazole] | 118 to 121 |
| CC(=O)c1ccc(OCCCN2CCC(c3nsc4cc(F)ccc34)CC2)c(O)c1 [Example 144, 1-[4-[3-[4-(6-Fluoro-1,2-benzisothiazol-3-yl)-1-piperidinyl]propoxy]-3-hydroxyphenyl]ethanone] | 135 to 137 |
| COc1cc(C(C)O)ccc1OCCCN1CCC(c2nsc3cc(F)ccc23)CC1 (stereo not drawn) [Example 145, 4-[3-[4-(6-Fluoro-1,2-benzisothiazol-3-yl)-1-piperidinyl]propoxy]-3-methoxy-alpha-methylbenzenemethanol] | 113 to 115 |
| O=C1c2cc(Cl)c(Cl)cc2C(=O)N1CCN1CCC(c2noc3cc(F)ccc23)CC1 [Example 151, N-[2-[4-(6-Fluoro-1,2-benzisoxazol-3-yl)-1-piperidinyl]ethyl]-4,5-dichlorophthalimide] | 132 to 134 |
| O=C1c2c(Cl)ccc(Cl)c2C(=O)N1CCN1CCC(c2noc3cc(F)ccc23)CC1 [Example 153, N-[2-[4-(6-Fluoro-1,2-benzisoxazol-3-yl)-1-piperidinyl]ethyl]-3,6-dichlorophthalimide] | 163 to 164 |
